Data taken from US20260259194A1, “METHOD OF MONITORING MESENCHIMAL STEM CELL (MSC) POTENCY AND IMPROVING MSC DIFFERENTIATION POTENTIAL” (AGENCY FOR SCIENCE, TECHNOLOGY AND RESEARCH, priority 2022, published 2026).

What was measured:
Type in all cases: cell-based, human
MSCs [1] = experiment: MSC proliferation with HOXA9 inhibitor; conditions: compared with DMSO control
Description: (§1) To validate the effects of HOXA9 knockdown on MSCs, effects of HOXA9 specific inhibitor DB818 on MSCs were determined.

MSCs [2] = experiment: CFU-F (colony formation) of MSCs; conditions: compared with DMSO control
Description: as §1

MSCs [3] = experiment: Three-lineage differentiation of MSCs, staining (oil red, AP, alcian blue); conditions: compared with DMSO control
Text: (§2) Differentiation potential is the most important property of MSCs. To determine the effects of HOXA9 knockdown on the differentiation potential of MSCs into three lineages, HOXA9 knockdown and scrambled MSCs were induced into three lineages of differentiation. Compared with scrambled control, HOXA9 knockdown decreased oil red stain for oil droplet in adipogenesis, AP stain for alkaline phosphatase in osteogenesis and alcian blue stain for proteoglycan in chondrogenesis [FIG. 6a]. Stain data were validated by qPCR for lineage specific genes, compared with scrambled control, HOXA9 knockdown decreased adipogenenic genes (CEBPα, PPARγ, LPL and αP2), osteogenic genes (OC, OPN and ALP) and chondrogenic genes (COL2A1, AGC1, SOX9 and COL10A1) [FIG. 6b]. AP assay for quantifying alkaline phosphatase activity was consistent with AP stain, HOXA9 knockdown decreased alkaline phosphatase activity [FIG. 6b].
as §1

MSCs [4] = experiment: qPCR for lineage specific genes in differentiated MSCs; conditions: compared with control
Text: as §2, §1

N=C(N)c1ccc(-c2ccc(-c3nc4ccc(C(=N)N)cc4[nH]3)s2)cc1 [DB818]
decreased: oil red stain for oil droplet in adipogenesis (MSCs [3]; adipogenesis) | alcian blue stain for proteoglycan in chondrogenesis (MSCs [3]; chondrogenesis) | AP stain for alkaline phosphatase in osteogenesis (MSCs [3]; osteogenesis) | adipogenenic genes (CEBPα, PPARγ, LPL and αP2) (MSCs [4]) | chondrogenic genes (COL2A1, AGC1, SOX9 and COL10A1) (MSCs [4]) | osteogenic genes (RUNX2 and COL1A1) (MSCs [4])
abolished: MSC proliferation (MSCs [1]) | CFU-F (MSCs [2])
